Reference: ChEMBL document CHEMBL3885861, “Open TG-GATES”

Species: Rattus norvegicus
Experiment: Open TG-GATES - Regimen: Single
Format: toxicity, organism-based, Sprague-Dawley
Design: regimen Single, gender Male, age 6 weeks
Conditions: in vivo, po, 0 mg/kg, route gavage, dose level Control; for APTT / Bas / Eos / Fbg / Hb / Lym / MCH / MCHC / MCV / Mono / Neu / PT / RBC / Ret / WBC: tissue Blood; for KIDNEY_L / KIDNEY_R / KIDNEY_TOTAL: tissue Kidney; for ALT / AST / CRE / DBIL / IP / K / LDH / Na / RALB / TBIL / TC / TG / TP / gamma-GTP / ALP: tissue Plasma

## Cc1cnc(NC(=O)C2=C(O)c3ccccc3S(=O)(=O)N2C)s1 [MELOXICAM]
3 h
  TERMINAL_BW: 226.2 g
  APTT: 17.9 s
  Bas: 0.4%
  Eos: 1%
  Fbg: 222.8 mg/dL
  Hb: 13.4 g/dL
  Lym: 78.6%
  MCH: 21.2 pg
  MCHC: 34.1%
  MCV: 62.3 fL
  Mono: 2%
  Neu: 17.6%
  PT: 11.8 s
  RBC: 633.2 x10_4/ul
  Ret: 7%
  WBC: 78.8 x10_2/uL
  KIDNEY_L: 1 g
  KIDNEY_R: 1 g
  KIDNEY_TOTAL: 2 g
  ALT: 37.6 IU/L
  AST: 68 IU/L
  CRE: 0.4 mg/dL
  DBIL: 0.06 mg/dL
  IP: 9.3 mg/dL
  K: 3.7 meq/L
  LDH: 149.4 IU/L
  Na: 141.4 meq/L
  RALB: 3.4 g/dL
  TBIL: 0.1 mg/dL
  TC: 79.6 mg/dL
  TG: 61.6 mg/dL
  TP: 5.4 g/dL
  gamma-GTP: 1 IU/L
6 h
  TERMINAL_BW: 224.5 g
  Bas: 0.6%
  Eos: 0.6%
  Fbg: 235.8 mg/dL
  Lym: 75.2%
  MCH: 21.8 pg
  MCHC: 33.8%
  MCV: 64.4 fL
  Mono: 3.2%
  Neu: 19.8%
  PT: 12.6 s
  RBC: 625.4 x10_4/ul
  Ret: 7.3%
  WBC: 110.7 x10_2/uL
  KIDNEY_L: 1 g
  KIDNEY_R: 1 g
  KIDNEY_TOTAL: 2 g
  ALP: 739.4 IU/L
  ALT: 31.4 IU/L
  AST: 61.6 IU/L
  CRE: 0.3 mg/dL
  DBIL: 0.066 mg/dL
  IP: 9.5 mg/dL
  K: 3.9 meq/L
  LDH: 153 IU/L
  Na: 141.4 meq/L
  RALB: 3.3 g/dL
  TBIL: 0.1 mg/dL
  TC: 74.8 mg/dL
  TG: 55.2 mg/dL
  TP: 5.4 g/dL
  gamma-GTP: 0.8 IU/L
9 h
  TERMINAL_BW: 222.3 g
  APTT: 17.6 s
  Bas: 0.2%
  Eos: 1%
  Fbg: 233.2 mg/dL
  Hb: 13.5 g/dL
  Lym: 72.4%
  MCH: 22.1 pg
  MCHC: 34.1%
  MCV: 64.8 fL
  Mono: 3%
  Neu: 22.4%
  PT: 12.6 s
  RBC: 610.8 x10_4/ul
  Ret: 7.2%
  WBC: 88.3 x10_2/uL
  KIDNEY_L: 1 g
  KIDNEY_R: 1 g
  KIDNEY_TOTAL: 2.1 g
  ALP: 910.8 IU/L
  ALT: 29.6 IU/L
  AST: 62.6 IU/L
  CRE: 0.4 mg/dL
  DBIL: 0.068 mg/dL
  IP: 9.5 mg/dL
  K: 4 meq/L
  LDH: 153.2 IU/L
  Na: 141.6 meq/L
  RALB: 3.4 g/dL
  TBIL: 0.1 mg/dL
  TC: 70.6 mg/dL
  TG: 78.8 mg/dL
  TP: 5.5 g/dL
  gamma-GTP: 1.2 IU/L
24 h
  TERMINAL_BW: 238.2 g
  Bas: 0.6%
  Eos: 1.2%
  Fbg: 224.8 mg/dL
  Lym: 78.6%
  MCH: 21.1 pg
  MCHC: 33.9%
  MCV: 62.4 fL
  Mono: 2.6%
  Neu: 16.4%
  PT: 11.7 s
  RBC: 646.8 x10_4/ul
  Ret: 6.4%
  KIDNEY_L: 1 g
  KIDNEY_R: 1 g
  KIDNEY_TOTAL: 2 g
  ALP: 981.2 IU/L
  ALT: 32.6 IU/L
  AST: 62.6 IU/L
  CRE: 0.4 mg/dL
  DBIL: 0.098 mg/dL
  IP: 7.5 mg/dL
  K: 3.9 meq/L
  LDH: 161 IU/L
  Na: 142.4 meq/L
  RALB: 3.4 g/dL
  TBIL: 0.2 mg/dL
  TC: 74.2 mg/dL
  TG: 125.4 mg/dL
  TP: 5.5 g/dL
